# Experimental data taken from patent US20230310539A1, “TREATMENT OF DISEASE WITH EPOR ANTAGONIST” (Epo-Med Inc., priority 2020, published 2023).
# Where a SMILES comes first, the peptide text is derived from it. Bridges are numbered along the chain shown (N, C = ends). [ ]: non-standard residue; d: D form. Ala(benzothiazol-2-yl) = N[C@@H](Cc1nc2ccccc2s1)C(=O)O; NH = not defined here
# B1: Ac-SCHYGPLT (2-benzothiazolylalanine)VCK-NH-(biotin) (GT-11352) (peptide)
# peptide: Ac-SCHYGPLT[Ala(benzothiazol-2-yl)]VCK-{NH-biotin}
# modifications: disulfide 2-11; reading uncertain; also: printed as Ac-SCHYGPLT (2-benzothiazolylalanine)VCK-NH-(biotin)
# notes: Synthetic, biotin-labeled peptide; also called anti-EpoR peptide
# B2: human erythropoietin receptor (EpoR), wild-type (receptor)
# chain: APPPNLPDPKFESKAALLAARGPEELLCFTERLEDLVCFWEEAASAGVGPGNYSFSYQLEDEPWKLCRLHQAPTARGAVRFWCSLPTADTSSFVPLELRVTAASGAPRYHRVIHINEVVLLDAPVGLVARLADESGHVVLRWLPPPETPMTSHIRYEVDVSAGNGAGSVQRVEILEGRTECVLSNLRGRTRYTFAVRARMAEPSFGGFWSAWSEPVSLLTPSDLDPLILTLSLILVVILVLLTVLALLSHRRALKQKIWPGIPSPESEFEGLFTTHKGNFQLWLYQNDGCLWWSPCTPFTEDPPASLEVLSERCWGTMQAVEPGTDDEGPLLEPVGSEHAQDTYLVLDKWLLPRNPPSEDLPGPGGSVDIVAMDEGSEASSCSSALASKPSPEGASAASFEYTILDPSSQLLRPWTLCPELPPTPPHLKYLYLVVSDSGISTDYSSGDSQGAQGGLSDGPYSNPYENSLIPAAEPLPPSYVACS
# notes: Endogenous on human AsPC-1, HCC1806 and UT-7/Epo cells, or overexpressed from a vector in AsPC-1 and 293T cells; also called Epo receptor; wild-type EpoR
# Columns and labels:
# [1] = Body weight of AsPC-1 cancer bearing mice; format: in vivo, mouse; details: ERA-350 0.2 mg/day intraperitoneally, twice a week for 4 weeks
# Experimental: AsPC-1 cells cultured in the similar manner as Example 1 were collected, suspended in RPMI-1640 medium containing 10% Matrigel (BD Bioscience, 354234), and transplanted subcutaneously to the right side on the back of a 6-week-old male nude mouse (Japan SLC, BALB/cSlc-nu/nu) (5×10^6/0.1 mL/mouse). The length (L) and width (W) of the tumor were measured using a digital caliper. When the tumor volume (V) calculated from the formula V=L×W^2/2 reached about 150 to 200 mm^3, the mice were separated into groups and administered with test compounds (ERA-350 and ERA-350+gemcitabine). Saline was administered to a control group. The compounds were administered intraperitoneally (0.1 mL/mouse, 6 mice/test compound) once daily (0.2 mg/day for ERA-350, and 1 mg/day for gemcitabine), twice a week for 4 weeks. The tumor size and body weight were measured twice a week to monitor the effect of the administration of test compounds.
# [2] = target: T1, EpoR in bone marrow cells (Mus musculus, UniProt P14753); test: Immunofluorescence co-localization of biotin-labeled anti-EpoR peptide with EpoR in bone marrow cells; format: cell-based; details: 100 μM, 1 hour at 37° C.
# T1 construct: tissue Japan SLC; host or cells: mouse (ICR, female) femur bone marrow cells
# T1 sequence (P14753 25-507): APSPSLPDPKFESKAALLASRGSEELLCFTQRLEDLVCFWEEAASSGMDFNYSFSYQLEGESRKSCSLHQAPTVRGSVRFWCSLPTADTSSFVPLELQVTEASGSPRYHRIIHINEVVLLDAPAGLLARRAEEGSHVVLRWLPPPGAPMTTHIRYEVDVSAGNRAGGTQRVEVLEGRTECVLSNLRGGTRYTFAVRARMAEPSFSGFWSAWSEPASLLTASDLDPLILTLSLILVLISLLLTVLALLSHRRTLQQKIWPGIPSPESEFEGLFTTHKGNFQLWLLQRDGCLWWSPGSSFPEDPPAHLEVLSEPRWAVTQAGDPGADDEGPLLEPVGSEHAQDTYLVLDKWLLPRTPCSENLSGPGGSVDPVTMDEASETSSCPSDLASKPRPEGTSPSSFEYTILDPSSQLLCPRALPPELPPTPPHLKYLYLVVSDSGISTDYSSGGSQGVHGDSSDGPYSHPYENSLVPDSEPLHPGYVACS
# Experimental: Bone marrow cells were harvested from mouse femur (Japan SLC, ICR, female).
# (§1) These bone marrow cells (2×10^6 cells) and cancer cells (AsPC-1 cells and HCC1806 cells; both 2×10^3 cells) were incubated with GT-11352 (biotin labeled, 100 μM) for 1 hour at 37° C. in the presence or absence of recombinant human erythropoietin (rhEpo) (10 U/mL). Subsequently, the cells were fixed with formalin, blocked, and subjected to immunofluorescent staining. The nucleus was stained by DAPI staining. The cells were observed through fluorescence with a microscope (Keyence, BZ-X800). The following antibodies were used. • EpoR detection: rat anti-EpoR antibody (Merck, clone BCO-3H2) and anti-rat IgG-Alexa® Fluor 594 (Abcam, ab150160) • GT-11352 detection: streptavidin-FITC (Tokyo Chemical Industry, S0966)
# EpoR in AsPC-1 cells = target: T2, EpoR in AsPC-1 cells (Homo sapiens, UniProt P19235); test: Immunofluorescence co-localization of biotin-labeled anti-EpoR peptide with EpoR in AsPC-1 cells; format: cell-based; details: 100 μM, 1 hour at 37° C.
# T2 construct: The test used human pancreatic cancer derived AsPC-1 cells (ECACC, 96020930); host or cells: AsPC-1
# T2 sequence (P19235 25-508): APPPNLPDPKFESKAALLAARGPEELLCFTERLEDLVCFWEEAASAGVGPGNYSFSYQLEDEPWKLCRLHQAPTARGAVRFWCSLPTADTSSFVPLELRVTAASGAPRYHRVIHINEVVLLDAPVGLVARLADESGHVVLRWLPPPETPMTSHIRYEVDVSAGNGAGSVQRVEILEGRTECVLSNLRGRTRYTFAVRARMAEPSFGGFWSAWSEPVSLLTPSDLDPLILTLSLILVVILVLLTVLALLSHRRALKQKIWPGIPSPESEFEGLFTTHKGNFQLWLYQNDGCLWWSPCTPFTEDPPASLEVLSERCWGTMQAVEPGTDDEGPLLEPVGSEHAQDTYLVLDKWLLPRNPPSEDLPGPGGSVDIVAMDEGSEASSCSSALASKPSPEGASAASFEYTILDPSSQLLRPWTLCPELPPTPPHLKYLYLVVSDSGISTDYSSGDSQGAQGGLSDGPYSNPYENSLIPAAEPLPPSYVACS
# Experimental: (§2) The test used human pancreatic cancer derived AsPC-1 cells (ECACC, 96020930) and human breast cancer derived HCC1806 cells (ATCC, CRL-2335) that were passaged (twice/week) under the condition of 37° C. and 5% CO2-95% air using RPMI-1640 medium (Sigma, R8758-500 ML) containing 10% fetal bovine serum (biowest, S182H-500) and 1 mM sodium pyruvate (gibco, 11360-070).
# as §1
# EpoR in HCC1806 cells = target: T3, EpoR in HCC1806 cells (Homo sapiens, UniProt P19235); test: Immunofluorescence co-localization of biotin-labeled anti-EpoR peptide with EpoR in HCC1806 cells; format: cell-based; details: 100 μM, 1 hour at 37° C.
# T3 construct: human breast cancer derived HCC1806 cells (ATCC, CRL-2335); host or cells: HCC1806
# T3 sequence (P19235 25-508): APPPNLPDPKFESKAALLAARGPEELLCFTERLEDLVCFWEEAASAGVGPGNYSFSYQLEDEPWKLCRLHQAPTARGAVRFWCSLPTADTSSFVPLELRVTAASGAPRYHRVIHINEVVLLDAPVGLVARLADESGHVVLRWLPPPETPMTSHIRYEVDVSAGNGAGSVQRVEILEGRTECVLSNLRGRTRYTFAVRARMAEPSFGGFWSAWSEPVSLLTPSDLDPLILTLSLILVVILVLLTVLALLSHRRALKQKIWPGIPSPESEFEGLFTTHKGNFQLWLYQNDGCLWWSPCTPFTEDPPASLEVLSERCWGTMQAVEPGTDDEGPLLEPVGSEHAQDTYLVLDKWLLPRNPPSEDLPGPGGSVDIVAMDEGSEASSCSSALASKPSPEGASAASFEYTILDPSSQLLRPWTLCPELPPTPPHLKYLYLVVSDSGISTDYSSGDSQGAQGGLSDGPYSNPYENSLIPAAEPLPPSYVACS
# Experimental: as §2, §1
# [3] = target: B2; test: immunofluorescence colocalization on AsPC-1 and HCC1806 cells, GT-11352 100 µM, no rhEpo
# [4] = target: T4, human βcR (CD131, CSF2RB) (human, UniProt P32927 17-897); test: co-immunoprecipitation from membrane fractions of AsPC-1 cells (IP with anti-EpoR VP-2E8, blot with anti-EpoR BCO-3H2 or anti-βcR polyclonal antibody)
# T4 construct: Endogenous on AsPC-1 and HCC1806 cells; also called βc receptor; IL3RB
# T4 sequence: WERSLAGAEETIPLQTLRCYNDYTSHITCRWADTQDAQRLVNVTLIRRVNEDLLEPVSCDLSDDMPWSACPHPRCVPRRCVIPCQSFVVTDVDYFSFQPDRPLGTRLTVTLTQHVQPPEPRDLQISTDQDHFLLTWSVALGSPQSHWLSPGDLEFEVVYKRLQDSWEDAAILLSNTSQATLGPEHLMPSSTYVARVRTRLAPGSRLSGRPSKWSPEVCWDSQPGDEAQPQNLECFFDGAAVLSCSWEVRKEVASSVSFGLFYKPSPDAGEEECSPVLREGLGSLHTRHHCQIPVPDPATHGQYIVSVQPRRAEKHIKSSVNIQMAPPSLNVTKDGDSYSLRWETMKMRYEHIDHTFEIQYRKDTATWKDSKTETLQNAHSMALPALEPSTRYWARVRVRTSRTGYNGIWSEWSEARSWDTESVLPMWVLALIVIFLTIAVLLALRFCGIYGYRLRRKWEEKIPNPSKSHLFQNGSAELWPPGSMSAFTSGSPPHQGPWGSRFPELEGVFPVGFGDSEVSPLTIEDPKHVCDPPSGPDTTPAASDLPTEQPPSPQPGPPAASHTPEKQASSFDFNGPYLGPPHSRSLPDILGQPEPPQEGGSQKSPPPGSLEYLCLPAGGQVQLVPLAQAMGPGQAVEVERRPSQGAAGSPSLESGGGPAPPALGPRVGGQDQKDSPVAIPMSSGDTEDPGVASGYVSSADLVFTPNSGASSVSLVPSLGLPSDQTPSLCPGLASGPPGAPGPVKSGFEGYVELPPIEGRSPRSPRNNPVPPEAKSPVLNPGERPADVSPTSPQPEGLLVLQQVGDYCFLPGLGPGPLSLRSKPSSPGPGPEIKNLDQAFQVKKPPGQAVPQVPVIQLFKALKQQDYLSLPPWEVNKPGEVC
# Experimental: The stable expression strain was cultured and collected. Membrane fractions were prepared using a commercially available membrane protein extraction kit (Mem-PER Plus Membrane Protein Extraction Kit, Thermo Scientific).
molecule,measurement,setting,value
CSCC[C@@H]1NC(=O)[C@@H]2CCCN2C(=O)CNC(=O)[C@H](Cc2ccc(O)cc2)NC(=O)[C@H](Cc2c[nH]cn2)NC(=O)[C@@H](NC(=O)[C@H](CO)NC(C)=O)CSSC[C@@H](C(=O)N[C@@H](CCCCN)C(N)=O)NC(=O)[C@H](C(C)C)NC(=O)[C@H](Cc2nc3ccccc3s2)NC(=O)[C@H]([C@@H](C)O)NC1=O [ERA-350] (Ac-SCHYGPMT[Ala(benzothiazol-2-yl)]VCK-NH2; disulfide 2-11),Body weight,[1],did not affect the body weight
Ac-SCHYGPLT (2-benzothiazolylalanine)VCK-NH-(biotin) [GT-11352],Co-localization of EpoR and peptide,[2]; absence of erythropoietin,exhibited colocalization
same,Co-localization of EpoR and peptide,[2]; presence of rhEpo 10 U/mL,did not exhibit co-localization
same,Co-localization of EpoR and peptide,EpoR in AsPC-1 cells; absence of erythropoietin,exhibited colocalization
same,Co-localization of EpoR and peptide,EpoR in AsPC-1 cells; presence of rhEpo 10 U/mL,exhibited colocalization
same,Co-localization of EpoR and peptide,EpoR in HCC1806 cells; absence of erythropoietin,exhibited colocalization
same,Co-localization of EpoR and peptide,EpoR in HCC1806 cells; presence of rhEpo 10 U/mL,exhibited colocalization
B1,binding result,[3],binds
B2,binding result,[4],binds
